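Protocol summary: plate cells (96-well), add compound at 5 concentrations, incubate 48 h, interpolate endpoints linearly. Here, GI50 denotes the concentration required for 50% inhibition of growth. The concentration for full growth arrest is given as TGI.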
Key:
Experiment in all cases: growth of human tumour cells (NCI), 48 h
U251 CNS = system: U251 CNS
SR leukemia = system: SR leukemia
K-562 leukemia = system: K-562 leukemia
OVCAR-4 ovarian = system: OVCAR-4 ovarian
MCF7 breast = system: MCF7 breast
NCI-H460 lung = system: NCI-H460 lung
786-0 renal = system: 786-0 renal
MOLT-4 leukemia = system: MOLT-4 leukemia
SK-OV-3 ovarian = system: SK-OV-3 ovarian
M14 melanoma = system: M14 melanoma
UO-31 renal = system: UO-31 renal
SW-620 colon = system: SW-620 colon
LOX IMVI melanoma = system: LOX IMVI melanoma
ACHN renal = system: ACHN renal
T-47D breast = system: T-47D breast
HCC-2998 colon = system: HCC-2998 colon
UACC-257 melanoma = system: UACC-257 melanoma
NCI-H23 lung = system: NCI-H23 lung
SK-MEL-28 melanoma = system: SK-MEL-28 melanoma
NCI/ADR-RES ovarian = system: NCI/ADR-RES ovarian
IGROV1 ovarian = system: IGROV1 ovarian
A549 NSCLC = system: A549 NSCLC
SK-MEL-5 melanoma = system: SK-MEL-5 melanoma
MDA-MB-231 breast = system: MDA-MB-231 breast
RXF 393 renal = system: RXF 393 renal
TK-10 renal = system: TK-10 renal
CCRF-CEM leukemia = system: CCRF-CEM leukemia
SN12C renal = system: SN12C renal
HOP-92 NSCLC = system: HOP-92 NSCLC
SNB-19 CNS = system: SNB-19 CNS
OVCAR-8 ovarian = system: OVCAR-8 ovarian
KM12 colon = system: KM12 colon
OVCAR-5 ovarian = system: OVCAR-5 ovarian
UACC-62 melanoma = system: UACC-62 melanoma
HT29 colon = system: HT29 colon
NCI-H522 lung = system: NCI-H522 lung
A498 renal = system: A498 renal
HCT-116 colon = system: HCT-116 colon
HL-60(TB) leukemia = system: HL-60(TB) leukemia
CAKI-1 renal = system: CAKI-1 renal
DU-145 prostate = system: DU-145 prostate
RPMI-8226 leukemia = system: RPMI-8226 leukemia
BT-549 breast = system: BT-549 breast
PC-3 prostate = system: PC-3 prostate
HCT-15 colon = system: HCT-15 colon
SK-MEL-2 melanoma = system: SK-MEL-2 melanoma
SF-268 CNS = system: SF-268 CNS
OVCAR-3 ovarian = system: OVCAR-3 ovarian
COLO 205 colon = system: COLO 205 colon
SNB-75 CNS = system: SNB-75 CNS
SF-539 CNS = system: SF-539 CNS
HOP-62 NSCLC = system: HOP-62 NSCLC
NCI-H226 lung = system: NCI-H226 lung
HS 578T breast = system: HS 578T breast

For `C=C(CNCCc1ccc(O)cc1)[C@@H]1CC[C@]2(COC3CCCCO3)CC[C@]3(C)[C@H](CC[C@@H]4[C@@]5(C)CCC(N)C(C)(C)[C@@H]5CC[C@]43C)[C@@H]12` (some centres undefined), the GI50 (U251 CNS) was 0.306 µM, the TGI (U251 CNS) was > 100 µM and the GI50 (SR leukemia) was 0.289 µM. For the same compound, the TGI (SR leukemia) was > 100 µM, the GI50 (K-562 leukemia) was 0.305 µM and the TGI (K-562 leukemia) was > 100 µM.
`CN1CCn2c(c(Sc3ccc(C(=O)NO)cc3)c3ccccc32)C1=O` showed a GI50 (OVCAR-4 ovarian) of 2.14 µM, a TGI (OVCAR-4 ovarian) of 9.99 µM and a GI50 (MCF7 breast) of 2.8 µM. The TGI (MCF7 breast) was > 77.1 µM, the GI50 (NCI-H460 lung) was 2.19 µM and the TGI (NCI-H460 lung) was 6.58 µM. The GI50 (786-0 renal) was 1.89 µM, the TGI (786-0 renal) was 3.64 µM and the GI50 (MOLT-4 leukemia) was 2.87 µM. The TGI (MOLT-4 leukemia) was > 33.8 µM, the GI50 (SK-OV-3 ovarian) was 2.11 µM and the TGI (SK-OV-3 ovarian) was 4.8 µM. It also gave a GI50 (M14 melanoma) of 1.77 µM, a TGI (M14 melanoma) of 3.99 µM and a GI50 (UO-31 renal) of 3.1 µM. The TGI (UO-31 renal) was 13.6 µM, the GI50 (SW-620 colon) was 1.86 µM and the TGI (SW-620 colon) was 5.14 µM. The GI50 (LOX IMVI melanoma) was 1.78 µM, the TGI (LOX IMVI melanoma) was 3.66 µM and the GI50 (ACHN renal) was 2.63 µM. It also gave a TGI (ACHN renal) of 8.72 µM, a GI50 (T-47D breast) of 1.53 µM and a TGI (T-47D breast) of 3.91 µM. The GI50 (HCC-2998 colon) was 1.94 µM, the TGI (HCC-2998 colon) was 3.76 µM and the GI50 (UACC-257 melanoma) was 1.51 µM. The TGI (UACC-257 melanoma) was 3.56 µM, the GI50 (NCI-H23 lung) was 1.35 µM and the TGI (NCI-H23 lung) was 4.36 µM. The GI50 (SK-MEL-28 melanoma) was 1.94 µM, the TGI (SK-MEL-28 melanoma) was 4.94 µM and the GI50 (NCI/ADR-RES ovarian) was 8.82 µM. For the same compound, the TGI (NCI/ADR-RES ovarian) was > 87.1 µM, the GI50 (IGROV1 ovarian) was 1.82 µM and the TGI (IGROV1 ovarian) was 3.85 µM. For the same compound, the GI50 (A549 NSCLC) was 3.45 µM, the TGI (A549 NSCLC) was 13 µM and the GI50 (SK-MEL-5 melanoma) was 1.7 µM. It also gave a TGI (SK-MEL-5 melanoma) of 3.15 µM, a GI50 (MDA-MB-231 breast) of 2.13 µM and a TGI (MDA-MB-231 breast) of 5.09 µM. For the same compound, the GI50 (RXF 393 renal) was 1.62 µM, the TGI (RXF 393 renal) was 3.17 µM and the GI50 (TK-10 renal) was 2.09 µM. The TGI (TK-10 renal) was 5.29 µM, the GI50 (CCRF-CEM leukemia) was 1.23 µM and the TGI (CCRF-CEM leukemia) was > 27.8 µM. The GI50 (SN12C renal) was 2.13 µM, the TGI (SN12C renal) was 5.58 µM and the GI50 (U251 CNS) was 1.79 µM. The TGI (U251 CNS) was 4 µM, the GI50 (HOP-92 NSCLC) was 1.67 µM and the TGI (HOP-92 NSCLC) was 3.53 µM. For the same compound, the GI50 (SNB-19 CNS) was 2.34 µM, the TGI (SNB-19 CNS) was 9.99 µM and the GI50 (OVCAR-8 ovarian) was 1.92 µM. For the same compound, the TGI (OVCAR-8 ovarian) was 6.71 µM, the GI50 (KM12 colon) was 1.85 µM and the TGI (KM12 colon) was 3.92 µM. It also gave a GI50 (OVCAR-5 ovarian) of 2 µM, a TGI (OVCAR-5 ovarian) of 5.67 µM and a GI50 (UACC-62 melanoma) of 1.44 µM. It also gave a TGI (UACC-62 melanoma) of 3.24 µM, a GI50 (HT29 colon) of 2.92 µM and a TGI (HT29 colon) of 9.38 µM. The GI50 (NCI-H522 lung) was 1.13 µM, the TGI (NCI-H522 lung) was 2.66 µM and the GI50 (A498 renal) was 0.151 µM. It also gave a TGI (A498 renal) of 1.8 µM, a GI50 (HCT-116 colon) of 1.59 µM and a TGI (HCT-116 colon) of 3.55 µM. It also gave a GI50 (HL-60(TB) leukemia) of 3.16 µM, a TGI (HL-60(TB) leukemia) of 32 µM and a GI50 (CAKI-1 renal) of 3.86 µM. For the same compound, the TGI (CAKI-1 renal) was 11 µM, the GI50 (DU-145 prostate) was 2.97 µM and the TGI (DU-145 prostate) was 12.8 µM. The GI50 (RPMI-8226 leukemia) was 1.24 µM, the TGI (RPMI-8226 leukemia) was > 24.5 µM and the GI50 (BT-549 breast) was 1.92 µM. The TGI (BT-549 breast) was 4.3 µM, the GI50 (PC-3 prostate) was 1.96 µM and the TGI (PC-3 prostate) was 4.57 µM. For the same compound, the GI50 (HCT-15 colon) was 2.73 µM, the TGI (HCT-15 colon) was 14.3 µM and the GI50 (SK-MEL-2 melanoma) was 2.01 µM. For the same compound, the TGI (SK-MEL-2 melanoma) was 4.1 µM, the GI50 (SR leukemia) was 2.65 µM and the TGI (SR leukemia) was > 100 µM. The GI50 (SF-268 CNS) was 1.92 µM, the TGI (SF-268 CNS) was 3.85 µM and the GI50 (OVCAR-3 ovarian) was 1.87 µM. The TGI (OVCAR-3 ovarian) was 4.33 µM, the GI50 (K-562 leukemia) was 3.77 µM and the TGI (K-562 leukemia) was > 100 µM. For the same compound, the GI50 (COLO 205 colon) was 1.69 µM, the TGI (COLO 205 colon) was 3.87 µM and the GI50 (SNB-75 CNS) was 1.27 µM. It also gave a TGI (SNB-75 CNS) of 2.99 µM, a GI50 (SF-539 CNS) of 1.56 µM and a TGI (SF-539 CNS) of 3.48 µM. For the same compound, the GI50 (HOP-62 NSCLC) was 1.88 µM, the TGI (HOP-62 NSCLC) was 3.87 µM and the GI50 (NCI-H226 lung) was 1.78 µM. For the same compound, the TGI (NCI-H226 lung) was 3.9 µM, the GI50 (HS 578T breast) was 2.41 µM and the TGI (HS 578T breast) was > 29 µM.

Source: PubChem BioAssay (NCI)
